From EPA's ToxValDB 9.5

System: Rattus norvegicus
[1] = acute, duration: 1 days, injection, intraperitoneal, M, Sprague-Dawley, anti-edema effect (reduction in paw edema)
[2] = chronic, duration: 2 years, oral, diet, F, Sprague-Dawley, blood: eosinophils (18 months)
[3] = short-term, duration: 14 days, oral, gavage, M, Crj:CD, red blood cell count
[4] = short-term, duration: 14 days, oral, gavage, M, Crj:CD, white blood cell count
[5] = subchronic, duration: 90 days, oral, diet, M, blood: leukocytes (3 months)
[6] = subchronic, duration: 90 days, oral, diet, M, blood: monocytes (1 month)

O=C([O-])C(F)(F)C(F)(F)C(F)(F)C(F)(F)C(F)(F)C(F)(F)C(F)(F)F.[NH4+] [Ammonium perfluorooctanoate]
LOEL [1]: 50 mg/kg-day
NOEL [1]: 25 mg/kg-day
NOEL (acute, duration: 1 days, injection, intraperitoneal, M, Sprague-Dawley, paw thickness (0.5 hr) + paw thickness (1 hr) + paw thickness (time 0)): 150 mg/kg-day
LOEL (acute, duration: 1 days, injection, intraperitoneal, M, Sprague-Dawley, paw thickness (3 hrs, […] after PFOA) + paw thickness (4 hrs, 2.5 hrs after PFOA)): 150 mg/kg-day
LOEL (acute, duration: 1 days, injection, intraperitoneal, M, Sprague-Dawley, paw thickness ([…]) + paw thickness (2 hr) + paw thickness (3 hr) + paw thickness (4 hr)): 150 mg/kg-day
NOEL (acute, duration: 1 days, injection, intraperitoneal, M, Sprague-Dawley, paw thickness ([…], time of PFOA injection) + paw thickness (2 hrs, 0.5 hrs after PFOA)): 150 mg/kg-day
NOEL (acute, duration: 1 days, injection, intraperitoneal, M, Sprague-Dawley, paw thickness (edema): 0 hr, after carrageenan + paw thickness (edema): 0 hr, before carrageenan + paw thickness (edema): 0.5 hr + paw …): 100 mg/kg-day
LOEL (acute, duration: 1 days, injection, intraperitoneal, M, Sprague-Dawley, paw thickness (edema): […] + paw thickness (edema): 2 hr + paw thickness (edema): 2.5 hr + paw thickness (edema): 3 hr + paw thickness (…): 100 mg/kg-day
NOEL (acute, duration: 24 hours, injection, intraperitoneal, M, Fischer 344, blood serum: TNF-alpha levels): 150 mg/kg-day
NOEL (chronic, duration: 2 years, oral, diet, F, Sprague-Dawley, blood: eosinophils (12 months) + blood: eosinophils (24 months) + blood: eosinophils (3 months) + blood: eosinophils (6 months) + blood: …): 23.4 mg/kg-day
LOEL [2]: 23.4 mg/kg-day
NOEL [2]: 2.34 mg/kg-day
LOEL (chronic, duration: 2 years, oral, diet, F, Sprague-Dawley, blood: lymphocytes (18 months) + blood: neutrophils (18 months) + spleen: spleen: absolute weight (2 years) + spleen: spleen: relative …): 2.34 mg/kg-day
NOEL (chronic, duration: 2 years, oral, diet, M, Sprague-Dawley, blood: eosinophils (12 months) + blood: eosinophils (18 months) + blood: eosinophils (24 months) + blood: eosinophils (3 months) + blood: …): 23.4 mg/kg-day
LOEL (chronic, duration: 2 years, oral, diet, M, Sprague-Dawley, blood: leukocyte count (12 months) + blood: leukocyte count (3 months) + blood: leukocyte count (6 months) + blood: lymphocytes (18 months…): 2.34 mg/kg-day
NOEL (short-term, duration: 14 days, oral, gavage, M, Crj:CD, blood: NKR-P1A+ + CD3+ + CD4+ + CD45RA+ + CD8a+ + lymphocyte + monocyte + NKR-P1A+ + spleen: spleen: absolute weight + spleen: spleen: …): 50 mg/kg-day
LOEL [3]: 50 mg/kg-day
NOEL [3]: 5 mg/kg-day
LOEL [4]: 5 mg/kg-day
NOEL [4]: 0.5 mg/kg-day
NOEL (short-term, duration: 24 days, oral, gavage, M, Crl:CD(SD) BR, IgM antibody titer (SRBC) + mean serum corticosterone + spleen: incidence of spleen hematopoiesis + spleen: spleen: absolute weight + spleen…): 30 mg/kg-day
LOEL (short-term, duration: 24 days, oral, gavage, M, Crl:CD(SD) BR, thymus: thymus: relative weight): 30 mg/kg-day
NOEL (short-term, duration: 28 days, oral, gavage, F, Sprague-Dawley, basophils + eosinophils + lymphocytes + monocytes + neutrophils + spleen: spleen: absolute weight + spleen: spleen: relative weight + thymus…): 30 mg/kg-day
NOEL (short-term, duration: 28 days, oral, gavage, F, Sprague-Dawley, basophils + eosinophils + lymphocytes + monocytes + spleen: spleen: absolute weight + spleen: spleen: relative weight + thymus: thymus: …): 30 mg/kg-day
LOEL (short-term, duration: 28 days, oral, gavage, F, Sprague-Dawley, neutrophils): 30 mg/kg-day
NOEL (short-term, duration: 28 days, oral, gavage, M, Sprague-Dawley, basophils + eosinophils + lymphocytes + monocytes + neutrophils + spleen: spleen: absolute weight + spleen: spleen: relative weight + thymus…): 30 mg/kg-day
NOEL (short-term, duration: 28 days, oral, gavage, M, Sprague-Dawley, basophils + eosinophils + lymphocytes + neutrophils + spleen: spleen: absolute weight + spleen: spleen: relative weight + thymus: thymus: …): 30 mg/kg-day
LOEL (short-term, duration: 28 days, oral, gavage, M, Sprague-Dawley, monocytes + thymus: thymus: absolute weight): 30 mg/kg-day
NOEL (short-term, duration: 29 days, oral, gavage, M, Crl:CD(SD) BR, IgM antibody titer (SRBC) + mean serum corticosterone + spleen: incidence of spleen hematopoiesis + spleen: spleen: relative weight + spleen…): 30 mg/kg-day
NOEL (subchronic, duration: 90 days, oral, diet, F, blood: basophils (1 month) + blood: basophils (3 months) + blood: eosinophils (1 month) + blood: eosinophils (3 months) + blood: leukocytes…): 96 mg/kg-day
NOEL (subchronic, duration: 90 days, oral, diet, M, blood: basophils (1 month) + blood: basophils (3 months) + blood: eosinophils (1 month) + blood: eosinophils (3 months) + blood: leukocytes…): 96 mg/kg-day
LOEL [5]: 28.8 mg/kg-day
NOEL [5]: 9.6 mg/kg-day
LOEL [6]: 2.88 mg/kg-day
NOEL [6]: 0.96 mg/kg-day
